Results as given in patent US8466155B2, “Pyrimidines” (Boehringer Ingelheim International GmbH, priority 2009, dated 2013).

Target: T1, PTK2 (Homo sapiens, UniProt Q05397)
T1 construct: purchased Invitrogen PV3832
Test: PTK2 enzyme test, Assay 1 (DELFIA, PT60 antibody)
Format: biochemical
Details: 1 h pre-incubation, 1 h kinase reaction, values without *
Description: This test uses active PTK2 enzyme (Invitrogen Code PV3832) and poly-Glu-Tyr (4:1, Sigma P-0275) as the kinase substrate. The kinase activity is detected through the phosphorylation of the substrate in a DELFIA™ assay. The phosphorylated substrate is detected with the europium-labelled phosphotyrosine antibody PT60 (Perkin Elmer, No.: AD00400).
In order to determine concentration-activity curves with PTK2-inhibitors the compounds are serially diluted in 10% DMSO/H20 and 10 μL of each dilution are placed in each well of a 96-well microtitre plate (clear plate with a U-shaped base, Greiner No. 650101) (the inhibitors are tested in duplicates) and mixed with 10 μL/well of PTK2 kinase (0.01 μg/well). PTK2 kinase has been correspondingly diluted beforehand with kinase dilution buffer (20 mM TRIS/HCl pH 7.5, 0.1 mM EDTA, 0.1 mM EGTA, 0.286 mM sodium orthovanadate, 10% glycerol with the addition of freshly prepared BSA (fraction V, 1 mg/mL) and DTT (1 mM)). The test compound and the PTK2 kinase are pre-incubated for 1 h at RT and shaken at 500 revolutions per min. The reaction is started by the addition of 10 μL/well poly (Glu,Tyr) substrate (25 μg/well poly (Glu, Tyr), 0.05 μg/well biotinylated poly (Glu,Tyr) dissolved in 250 mM TRIS/HCl pH 7.5, 9 mM DTT)—the final concentration of DMSO is 2%. Then 20 μL of ATP Mix (30 mM TRIS/HCl pH 7.5, 0.02% Brij, 0.2 mM sodium orthovanadate, 10 mM magnesium acetate, 0.1 mM EGTA, 1× phosphatase inhibitor cocktail 1 (Sigma, No.: P2850), 50 μM ATP (Sigma, No.: A3377; 15 mM stock solution)) are added. After 1 h of kinase reaction (the plates are shaken at 500 rpm), the reaction is stopped by the addition of 12 μL/well 100 mM EDTA, pH 8.0 and shaken for a further 5 min at RT (500 rpm). 55 μL of the reaction mixture are transferred into a streptavidin plate (Strepta Well High Bind (transparent, 96-well) made by Roche, No.: 11989685001) and incubated for 1 h at RT (shaking at 500 rpm). Then the microtitre plate is washed three times with 200 μL/well D-PBS (Invitrogen, No. 14190). 100 μL of a solution containing DELFIA Eu-N1 Anti-Phosphotyrosine PT60 antibody (Perkin Elmer, No.: AD0040, diluted 1:2000 in DELFIA test buffer (Perkin Elmer, No.: 1244-111)) is then added and the mixture is incubated for 1 h at RT (shaking at 500 rpm). Then the plate is washed three times with 200 μL/well DELFIA washing buffer (Perkin Elmer, No.: 1244-114), 200 μL/well strengthening solution (Perkin Elmer, No.: 1244-105) are added and the mixture is incubated for 10 min at RT (shaking at 300 rpm).
The time-delayed europium fluorescence is then measured in a microtitre plate reader (VICTOR^3, Perkin Elmer). […] Wells that contain test buffer instead of enzyme are used as a control of the background kinase activity.
The IC50 values are determined from analyses of the concentration activity by iterative calculation with the aid of a sigmoid curve analysis algorithm (FIFTY, based on GraphPAD Prism Version 3.03) with a variable Hill coefficient.

T1 sequence (Q05397 whole entry): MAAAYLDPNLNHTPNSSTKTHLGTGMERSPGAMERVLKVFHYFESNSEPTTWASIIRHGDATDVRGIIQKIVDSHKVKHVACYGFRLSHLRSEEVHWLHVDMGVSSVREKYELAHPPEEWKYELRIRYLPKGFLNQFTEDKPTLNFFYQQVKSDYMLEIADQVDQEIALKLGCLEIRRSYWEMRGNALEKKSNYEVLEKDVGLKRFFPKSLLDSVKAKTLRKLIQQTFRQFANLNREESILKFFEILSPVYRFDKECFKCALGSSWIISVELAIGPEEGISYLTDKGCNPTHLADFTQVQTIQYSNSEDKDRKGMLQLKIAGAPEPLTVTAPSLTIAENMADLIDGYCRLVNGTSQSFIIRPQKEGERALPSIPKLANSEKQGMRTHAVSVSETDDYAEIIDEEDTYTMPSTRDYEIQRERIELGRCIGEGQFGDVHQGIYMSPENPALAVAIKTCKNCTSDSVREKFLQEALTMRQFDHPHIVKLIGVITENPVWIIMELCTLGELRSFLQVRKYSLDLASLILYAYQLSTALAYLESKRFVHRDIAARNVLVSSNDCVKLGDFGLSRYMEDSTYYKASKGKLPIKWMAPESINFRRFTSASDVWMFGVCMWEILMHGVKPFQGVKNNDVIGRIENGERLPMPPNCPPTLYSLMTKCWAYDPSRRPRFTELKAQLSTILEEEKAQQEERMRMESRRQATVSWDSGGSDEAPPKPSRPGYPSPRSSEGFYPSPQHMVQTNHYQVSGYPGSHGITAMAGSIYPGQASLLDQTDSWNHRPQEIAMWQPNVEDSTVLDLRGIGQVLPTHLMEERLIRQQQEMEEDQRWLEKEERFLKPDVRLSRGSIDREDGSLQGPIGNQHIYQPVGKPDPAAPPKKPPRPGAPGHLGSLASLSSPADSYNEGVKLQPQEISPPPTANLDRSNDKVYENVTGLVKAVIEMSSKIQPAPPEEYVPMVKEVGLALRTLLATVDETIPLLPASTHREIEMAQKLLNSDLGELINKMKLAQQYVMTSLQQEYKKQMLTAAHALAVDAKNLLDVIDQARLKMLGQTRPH

IC50 [nM]	Compound
0.37	COc1cc(C(=O)NC2CCN(C)CC2)c(F)cc1Nc1ncc(Cl)c(O[C@@H]2CCC[C@H]2N(C)S(C)(=O)=O)n1 [Example 85, 4-{5-chloro-4-[(1R,2R)-2-(methanesulphonyl-methyl-amino)-cyclopentyloxy]-pyrimidin-2-ylamino}-2-fluoro-5-methoxy-N-(1-methyl-piperidin-4-yl)-benzamide]
4	COc1cc(C(=O)N[C@H]2CC[C@H](N3CCN(CC4CC4)CC3)CC2)ccc1Nc1ncc(C(F)(F)F)c(O[C@@H]2Cc3ccccc3[C@H]2N(C)S(C)(=O)=O)n1 [Example 18]
3	COc1cc(NC(=O)C2CCCN(C)C2)ccc1Nc1ncc(C(F)(F)F)c(O[C@@H]2Cc3ccccc3[C@H]2N(C)S(C)(=O)=O)n1 (stereo partly drawn) [Example 92]
10	COc1cc(C(=O)NC[C@H](O)CO)c(F)cc1Nc1ncc(C(F)(F)F)c(O[C@@H]2Cc3ccccc3[C@H]2N(C)S(C)(=O)=O)n1 [Example 65]
400	COc1cc(C(=O)NC2CCN(C)CC2)ccc1Nc1ncc(C(F)(F)F)c(O[C@H]2Cc3ccccc3[C@@H]2N(C)S(C)(=O)=O)n1 [Example 32]
2	COc1cc(C(=O)NC2CCN(C)CC2)c(F)cc1Nc1ncc(C(F)(F)F)c(O[C@@H]2Cc3ccccc3[C@H]2N(C)S(C)(=O)=O)n1 [Example 25, 2-fluoro-4-{4-[(1R,2R)-1-(methanesulphonyl-methyl-amino)-indan-2-yloxy]-5-trifluoromethyl-pyrimidin-2-ylamino}-5-methoxy-N-(1-methyl-piperidin-4-yl)-benzamide]
0.38	COc1ccc(C(=O)NCCCN(C)C)cc1Nc1ncc(C(F)(F)F)c(O[C@@H]2Cc3ccccc3[C@H]2N(C)S(C)(=O)=O)n1 [Example 82]
2	COc1cc(C(=O)NC2CCN(C)CC2)c(F)cc1Nc1ncc(C(F)(F)F)c(O[C@@H]2CCC[C@H]2NS(C)(=O)=O)n1 [Example 28, 2-fluoro-4-[4-((1R,2R)-2-methanesulphonylamino-cyclopentyloxy)-5-trifluoromethyl-pyrimidin-2-ylamino]-5-methoxy-N-(1-methyl-piperidin-4-yl)-benzamide]
4	COc1cc(C(=O)NC[C@@H](O)CO)ccc1Nc1ncc(C(F)(F)F)c(O[C@@H]2Cc3ccccc3[C@H]2N(C)S(C)(=O)=O)n1 [Example 50]
2	COc1cc(C(=O)NCCN2CCN(C)CC2)c(Cl)cc1Nc1ncc(Cl)c(O[C@@H]2Cc3ccccc3[C@H]2N(C)S(C)(=O)=O)n1 [Example 34]
3	COc1cc(C(=O)N[C@H]2CCN(C)C[C@@H]2OC)c(F)cc1Nc1ncc(C(F)(F)F)c(O[C@@H]2Cc3ccccc3[C@H]2N(C)S(C)(=O)=O)n1 [Example 31, 2-fluoro-4-{4-[(1R,2R)-1-(methanesulphonyl-methyl-amino)-indan-2-yloxy]-5-trifluoromethyl-pyrimidin-2-ylamino}-5-methoxy-N-((3S,4S)-3-methoxy-1-methyl-piperidin-4-yl)-benzamide]
19	COc1cc(C(=O)NCC2CC2)c(F)cc1Nc1ncc(C(F)(F)F)c(O[C@@H]2Cc3ccccc3[C@H]2N(C)S(C)(=O)=O)n1 [Example 9]
0.54	COc1cc(C(=O)NCCN(C)C)c(F)cc1Nc1ncc(C(F)(F)F)c(O[C@@H]2Cc3ccccc3[C@H]2NS(C)(=O)=O)n1 [Example 96]
13	CNC(=O)c1ccc(Nc2ncc(C(F)(F)F)c(O[C@@H]3Cc4ccccc4[C@H]3N(C)S(C)(=O)=O)n2)c(OC)c1 [Example 17]
0.42	COc1cc(C(=O)NC2CCN(C)CC2)c(Cl)cc1Nc1ncc(C(F)(F)F)c(O[C@@H]2CCCC[C@H]2NS(C)(=O)=O)n1 [Example 93]
12	COc1cc(C(=O)NCC2CC2)ccc1Nc1ncc(C(F)(F)F)c(O[C@@H]2Cc3ccccc3[C@H]2N(C)S(C)(=O)=O)n1 [Example 21]
4	COc1cc(C(=O)NCC(O)CO)ccc1Nc1ncc(C(F)(F)F)c(O[C@@H]2Cc3ccccc3[C@H]2N(C)S(C)(=O)=O)n1 (stereo partly drawn) [Example 12]
17	CNC(=O)c1cc(OC)c(Nc2ncc(C(F)(F)F)c(O[C@@H]3Cc4ccccc4[C@H]3N(C)S(C)(=O)=O)n2)cc1F [Example 6]

IC50 [nM]	Compound
3	COc1cc(C(=O)NC2CCN(C)CC2)c(Cl)cc1Nc1ncc(Cl)c(O[C@@H]2Cc3ccccc3[C@H]2N(C)S(C)(=O)=O)n1 [Example 62]
1	COc1cc(C(=O)NC2CCN(C)CC2)ccc1Nc1ncc(C(F)(F)F)c(O[C@@H]2Cc3ccccc3[C@H]2N(C)S(C)(=O)=O)n1 [Example 27, 4-{4-[(1R,2R)-1-(methanesulphonyl-methyl-amino)-indan-2-yloxy]-5-trifluoromethyl-pyrimidin-2-ylamino}-3-methoxy-N-(1-methyl-piperidin-4-yl)-benzamide]
4	COc1cc(C(=O)NCCN2CCN(C)CC2)c(F)cc1Nc1ncc(C(F)(F)F)c(O[C@@H]2Cc3ccccc3[C@H]2N(C)S(C)(=O)=O)n1 [Example 5]
2	COc1cc(C(=O)NCCN2CCN(C)CC2)c(F)cc1Nc1ncc(Cl)c(O[C@@H]2Cc3ccccc3[C@H]2N(C)S(C)(=O)=O)n1 [Example 57]
0.28	COc1cc(C(=O)NC2CCN(C)CC2)c(Cl)cc1Nc1ncc(C(F)(F)F)c(O[C@@H]2Cc3ccccc3[C@H]2NS(C)(=O)=O)n1 [Example 87]
0.28	COc1cc(C(=O)NC2CCN(C)CC2)c(F)cc1Nc1ncc(C(F)(F)F)c(O[C@@H]2CCC[C@H]2N(C)S(C)(=O)=O)n1 [Example 103, 2-fluoro-4-{4-[(1R,2R)-2-(methanesulphonyl-methyl-amino)-cyclopentyloxy]-5-trifluoromethyl-pyrimidin-2-ylamino}-5-methoxy-N-(1-methyl-piperidin-4-yl)-benzamide]
4	COc1cc(NC(=O)C2CCN(C)CC2)ccc1Nc1ncc(C(F)(F)F)c(O[C@@H]2Cc3ccccc3[C@H]2N(C)S(C)(=O)=O)n1 [Example 91]
8	COc1cc(C(=O)N[C@H]2CC[C@H](N3CCN(CC4CC4)CC3)CC2)c(F)cc1Nc1ncc(C(F)(F)F)c(O[C@@H]2Cc3ccccc3[C@H]2N(C)S(C)(=O)=O)n1 [Example 7]
3	COc1cc(C(=O)NCC(C)(C)C)c(F)cc1Nc1ncc(C(F)(F)F)c(O[C@@H]2Cc3ccccc3[C@H]2N(C)S(C)(=O)=O)n1 [Example 3]
0.41	COc1ccc(C(=O)NN2CCN(C)CC2)cc1Nc1ncc(C(F)(F)F)c(O[C@@H]2Cc3ccccc3[C@H]2N(C)S(C)(=O)=O)n1 [Example 80]
6	CCS(=O)(=O)N[C@@H]1CCC[C@H]1Oc1nc(Nc2cc(F)c(C(=O)NC3CCN(C)CC3)cc2OC)ncc1C(F)(F)F [Example 44]
4	COc1cc(C(=O)NCCn2ccnc2C)ccc1Nc1ncc(C(F)(F)F)c(O[C@@H]2Cc3ccccc3[C@H]2N(C)S(C)(=O)=O)n1 [Example 13]
0.36	COc1cc(C(=O)NCCN(C)C)ccc1Nc1ncc(C(F)(F)F)c(O[C@@H]2CCCC[C@H]2N(C)S(C)(=O)=O)n1 [Example 111]
0.37	COc1cc(C(=O)NCCN(C)C)c(Cl)cc1Nc1ncc(C(F)(F)F)c(O[C@@H]2CCC[C@H]2NS(C)(=O)=O)n1 [Example 78]
4	COc1cc(C(=O)NCCN2CCN(C)CC2)ccc1Nc1ncc(C(F)(F)F)c(O[C@@H]2Cc3ccccc3[C@H]2N(C)S(C)(=O)=O)n1 [Example 16]
0.29	COc1cc(C(=O)NC2CCN(C)CC2)ccc1Nc1ncc(C(F)(F)F)c(O[C@@H]2CCCC[C@H]2N(C)S(C)(=O)=O)n1 [Example 76]
28	COc1cc(C(=O)N(C)C)c(Cl)cc1Nc1ncc(Cl)c(O[C@@H]2Cc3ccccc3[C@H]2N(C)S(C)(=O)=O)n1 [Example 37]
0.3	COc1cc(C(=O)NN2CCN(C)CC2)c(F)cc1Nc1ncc(C(F)(F)F)c(O[C@@H]2CCC[C@H]2N(C)S(C)(=O)=O)n1 [Example 101, 2-fluoro-4-{4-[(1R,2R)-2-(methanesulphonyl-methyl-amino)-cyclopentyloxy]-5-trifluoromethyl-pyrimidin-2-ylamino}-5-methoxy-N-(4-methyl-piperazin-1-yl)-benzamide]
